Test results reported in patent US11234982B2, “Methods for treating ocular surface pain” (NOVARTIS AG, priority 2019, dated 2022).

Tested on: healthy volunteers
Assay: First in human study Part 2: MAD, incidence of adverse events and MTD
Type: in vivo
Conditions: for AEs leading to discontinuation of: nE / AEs leading to discontinuation of: nS (%) / AEs of Mild severity: nE / AEs of Mild severity: nS (%) / AEs of Moderate: nE / AEs of Moderate: nS (%) / AEs, Subjects with AEs: nE (AE events) / AEs, Subjects with AEs: nS (%) (subjects with at least one AE) / Serious AEs: nE / Serious AEs: nS (%) / Study drug-related AEs: nE / Study drug-related AEs: nS (%) / Study-drug related AEs (last line of Table 2): nE / Study-drug related AEs (last line of Table 2): nS (%): MAD, N = 6
Description: Part 2 tested multiple ascending doses (MAD) of compound I, administering (i) 1 drop of 0.15%, 1.5%, 2.5%, 4 times daily (every 6 hours) for 7 days or (ii) 1 drop of 2.5%, 8 times daily (every 3 hours) for 7 days (supra-therapeutic dose) as eye drops.
Safety assessments: Safety assessments consisted of collecting all adverse events (AEs), serious adverse events (SAEs), including systemic and ocular adverse events, along with their severity and relationship to study drug. Systemic safety assessments included regular monitoring of hematology, blood chemistry and urinalysis performed at study center and regular assessments of physical examination, vital signs (systolic and diastolic blood pressure, pulse rate, and body temperature), ECG, pregnancy and assessments of fertility and hand immersion test at 49° C. during MAD part. Ocular safety assessments included early treatment diabetic retinopathy study (ETDRS) visual acuity, intraocular pressure, slit-lamp biomicroscopy, corneal staining and dilated fundus exam.
Inclusion Criteria: • Written informed consent was obtained before any assessment was performed. • Healthy male and female subjects aged 18 to 50 years (inclusive), and in good health as determined by past medical history, physical examination, vital signs, ECG, and laboratory tests at Screening. • At Screening, and Baseline, vital signs (systolic and diastolic blood pressure (BP) and pulse rate) were assessed in the sitting position after the subject had rested for at least 3 minutes and again after 3 minutes in the standing position. […] BMI=Body weight (kg)/[Height (m)]^2 • Subjects who were able to communicate well with the Investigator, to understand and comply with the requirements of the study. • For Part 3, subjects Baseline levels of eye sensitivity were to be in the range of 50 to 60 mm (inclusive) as measured by the Cochet-Bonnet esthesiometer.
History of any chronic eye disease other than refractive error, incipient cataract, strabismic amblyopia, or anisometropic amblyopia. Subjects with a history of acute eye disease (such as infection, corneal abrasion or allergy) within the past 6 months from Screening were eligible if the disease was not active. • Any currently active ocular condition that required use of topical eye drops. • Subjects using continuous positive airway pressure or other sleep apnea devices.

## CC(C)c1nc2cc(O)ccc2c(=O)n1-c1ccc(C#N)cc1 [Compound I, 4-(7-hydroxy-2-isopropyl-4-oxo-4H-quinazolin-3-yl)-benzonitrile]
2.5%, 8 times daily for 7 days
  Dose limiting adverse events: No dose limiting adverse events were identified
0.15% 4 times daily for 7 days
  AEs leading to discontinuation of: nE: 0
  AEs leading to discontinuation of: nS (%): 0 (0.0) nS (%)
  AEs of Mild severity: nE: 6
  AEs of Mild severity: nS (%): 3 (50.0) nS (%)
  AEs of Moderate: nE: 0
  AEs of Moderate: nS (%): 0 (0.0) nS (%)
  AEs, Subjects with AEs: nE (AE events): 6
  AEs, Subjects with AEs: nS (%) (subjects with at least one AE): 3 (50.0) nS (%)
  Serious AEs: nE: 0, 0
  Serious AEs: nS (%): 0, 0 nS (%)
  Study drug-related AEs: nE: 5
  Study drug-related AEs: nS (%): 2 (33.3) nS (%)
  Study-drug related AEs (last line of Table 2): nE: 0
  Study-drug related AEs (last line of Table 2): nS (%): 0 (0.0) nS (%)
1.5% 4 times daily for 7 days
  AEs leading to discontinuation of: nE: 0
  AEs leading to discontinuation of: nS (%): 0 (0.0) nS (%)
  AEs of Mild severity: nE: 11
  AEs of Mild severity: nS (%): 5 (83.3) nS (%)
  AEs of Moderate: nE: 1
  AEs of Moderate: nS (%): 1 (16.7) nS (%)
  AEs, Subjects with AEs: nE (AE events): 12
  AEs, Subjects with AEs: nS (%) (subjects with at least one AE): 5 (83.3) nS (%)
  Serious AEs: nE: 0
  Serious AEs: nS (%): 0 (0.0) nS (%)
  Study drug-related AEs: nE: 9
  Study drug-related AEs: nS (%): 3 (50.0) nS (%)
  Study-drug related AEs (last line of Table 2): nE: 0
  Study-drug related AEs (last line of Table 2): nS (%): 0 (0.0) nS (%)
2.5% 4 times daily for 7 days
  AEs leading to discontinuation of: nE: 1, 1
  AEs leading to discontinuation of: nS (%): 1, 1 nS (%)
  AEs of Mild severity: nE: 3
  AEs of Mild severity: nS (%): 2 (33.3) nS (%)
  AEs of Moderate: nE: 1
  AEs of Moderate: nS (%): 1 (16.7) nS (%)
  AEs, Subjects with AEs: nE (AE events): 4
  AEs, Subjects with AEs: nS (%) (subjects with at least one AE): 2 (33.3) nS (%)
  Serious AEs: nE: 0
  Serious AEs: nS (%): 0 (0.0) nS (%)
  Study drug-related AEs: nE: 4
  Study drug-related AEs: nS (%): 2 (33.3) nS (%)
  Study-drug related AEs (last line of Table 2): nE: 1
  Study-drug related AEs (last line of Table 2): nS (%): 1 (16.7) nS (%)
2.5% 8 times daily for 7 days
  AEs leading to discontinuation of: nE: 0
  AEs leading to discontinuation of: nS (%): 0 (0.0) nS (%)
  AEs of Mild severity: nE: 3
  AEs of Mild severity: nS (%): 2 (33.3) nS (%)
  AEs of Moderate: nE: 0
  AEs of Moderate: nS (%): 0 (0.0) nS (%)
  AEs, Subjects with AEs: nE (AE events): 3
  AEs, Subjects with AEs: nS (%) (subjects with at least one AE): 2 (33.3) nS (%)
  Serious AEs: nE: 0
  Serious AEs: nS (%): 0 (0.0) nS (%)
  Study drug-related AEs: nE: 2
  Study drug-related AEs: nS (%): 1 (16.7) nS (%)
  Study-drug related AEs (last line of Table 2): nE: 0
  Study-drug related AEs (last line of Table 2): nS (%): 0 (0.0) nS (%)
Parts 1, 2 and 3, exception in the 2.5% 4 times daily cohort
  Severity of adverse events of suspected causality to compound I: mild severity, except for moderate severity eye irritation
Compound I treated, compared with placebo
  Most frequent ocular adverse events: corneal staining, hyperemia and mild anterior chamber inflammation, in levels similar to placebo
Maximum feasible concentration, 8 times daily for 7 days, eye drops
  Maximum Tolerated Dose (MTD): 2.5%
